# Assay results: article PMC5715595 (British Journal of Pharmacology, 2017)
# Like-named read-outs stand apart in the source and are kept apart here.
# Experiments:
# rabbit Purkinje fibres = assay: Action potential parameters in rabbit Purkinje fibres; assay type: cell-based
# Protocol: Following a lethal dose of pentobarbital, the hearts of male New Zealand rabbits were immediately excised and immersed in a modified Tyrode solution maintained at room temperature and previously saturated with O2/CO2 (95%/5%). A piece of ventricle containing free running Purkinje fibres was fixed to the silastic bottom of an organ bath perfused with the same solution maintained at 37°C for 30 min. The preparation was then superfused with the modified Tyrode solution and stimulated for 30 min at 2 Hz and then at 1 Hz (2 ms stimulus at twice threshold). […] After a stabilization period of at least 1 h, action potentials typical for Purkinje fibres were recorded. Action potential reproducibility and stability were confirmed during a further 20 min stabilization period. […] Each was applied for 20 min to enable steady state to be reached. In addition, the emergence of early after‐depolarizations (EADs), favoured by calcium loading during the late phase 2 of the prolonged action potential, is recognized as a better marker of pro‐arrhythmic potential than APD prolongation alone.
# anaesthetized rabbits = system: anaesthetized rabbits
# Protocol: All the other experimental groups were 100% female. Animals were anaesthetized with sodium pentobarbital (45–60 mg·kg^−1 i.v.), maintained on a heated pad and mechanically ventilated with room air. […] A fluid‐filled catheter was inserted into the carotid artery to measure systemic arterial blood pressure and for blood sampling. A venous catheter was implanted into the jugular vein for infusion of drugs. Standard surface ECG leads I, II and III were monitored continuously to measure ECG intervals and the occurrence of ventricular tachyarrhythmia. Measurements of arterial blood pressures were calculated over 30 s duration at baseline and every 5 min. […] Then, for all determinations, the means of 10–30 consecutive sinus beats were automatically calculated at each time point (i.e. at the end of the stabilization period and then every 5 until 60 min after starting drug infusion) or until the occurrence of premature ventricular beats. Parameters recorded were systolic, diastolic and mean arterial blood pressure (mmHg), heart rate (beats·min^‐1 calculated from RR interval) as well as PR, QRS and QT/QTU intervals (ms), amplitudes of T‐wave and U‐wave (mV) and rhythm disturbances retrieved from ECG signals. […] Arrhythmia were scored according to the following scale: 0 being no arrhythmia, 1 being premature beats, 2 being auriculo‐ventricular blocks, 3 being ventricular tachycardia and 4 being TdP; and scores correspond to the average of maximal life‐threatening arrhythmias recorded during the experiment. […] Haemodynamic and ECG recordings were monitored continuously over 60 min following the start of infusion.
# [1] = human, 40 mg daily dosing; ref Shah et al., 2016; cited from earlier work
# α2A‐adrenoceptor = α2A‐adrenoceptor (Homo sapiens, UniProt P08913); assay: Affinity at α2A-adrenoceptor; assay type: binding
# Kv11.1 (hERG) channel = Kv11.1 (hERG) channel (Homo sapiens, UniProt Q12809); assay: cell-based
# Protocol: A whole‐cell patch clamp study was performed on isolated cells at room temperature. Cells were initially clamped at −80 mV, and biphasic pulses (4.8 s at +20 mV and then for 5 s at −50 mV) were applied at a 0.067 Hz frequency. […] Peak tail current amplitudes for each concentration were measured and averaged for four consecutive stimuli. Vehicle control tested in parallel evaluated the spontaneous run‐down of hERG current over time in testing conditions and the corresponding correction was applied.
# [2] = cumulative i.v. infusion 1, 3.3 and 10 mg·kg^−1 in successive 20 min steps
# Kv11.1 (hERG) channel, sequence (Q12809 whole entry): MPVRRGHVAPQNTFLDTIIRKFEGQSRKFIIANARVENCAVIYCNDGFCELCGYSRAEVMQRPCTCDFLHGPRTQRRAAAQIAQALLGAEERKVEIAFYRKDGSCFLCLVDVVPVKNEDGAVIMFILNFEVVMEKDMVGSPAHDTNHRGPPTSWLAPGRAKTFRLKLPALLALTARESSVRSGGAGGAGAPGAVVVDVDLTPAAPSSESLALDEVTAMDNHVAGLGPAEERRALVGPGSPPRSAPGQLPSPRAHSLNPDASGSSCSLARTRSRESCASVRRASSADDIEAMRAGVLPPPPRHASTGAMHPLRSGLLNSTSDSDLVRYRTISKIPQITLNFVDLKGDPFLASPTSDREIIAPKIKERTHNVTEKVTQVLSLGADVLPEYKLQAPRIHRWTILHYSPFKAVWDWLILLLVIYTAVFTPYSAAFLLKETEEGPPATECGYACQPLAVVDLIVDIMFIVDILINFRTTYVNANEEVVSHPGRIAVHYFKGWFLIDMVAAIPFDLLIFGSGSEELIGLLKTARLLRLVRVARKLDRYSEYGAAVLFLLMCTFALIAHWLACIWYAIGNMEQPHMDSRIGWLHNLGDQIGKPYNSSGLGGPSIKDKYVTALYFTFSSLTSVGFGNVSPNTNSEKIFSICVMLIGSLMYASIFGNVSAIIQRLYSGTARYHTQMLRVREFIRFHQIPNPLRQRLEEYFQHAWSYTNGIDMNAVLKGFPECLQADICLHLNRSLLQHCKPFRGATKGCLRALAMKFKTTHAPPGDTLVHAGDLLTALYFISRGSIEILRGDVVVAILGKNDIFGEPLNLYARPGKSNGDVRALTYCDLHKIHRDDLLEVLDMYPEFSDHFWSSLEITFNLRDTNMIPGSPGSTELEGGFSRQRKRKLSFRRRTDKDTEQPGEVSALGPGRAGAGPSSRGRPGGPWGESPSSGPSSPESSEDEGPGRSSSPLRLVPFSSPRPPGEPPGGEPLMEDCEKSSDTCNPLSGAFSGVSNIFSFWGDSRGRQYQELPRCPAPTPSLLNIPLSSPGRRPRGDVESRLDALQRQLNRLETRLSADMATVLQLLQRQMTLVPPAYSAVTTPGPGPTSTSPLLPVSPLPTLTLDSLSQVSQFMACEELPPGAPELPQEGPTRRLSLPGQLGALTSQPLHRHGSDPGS
# α2A‐adrenoceptor, sequence (P08913 whole entry): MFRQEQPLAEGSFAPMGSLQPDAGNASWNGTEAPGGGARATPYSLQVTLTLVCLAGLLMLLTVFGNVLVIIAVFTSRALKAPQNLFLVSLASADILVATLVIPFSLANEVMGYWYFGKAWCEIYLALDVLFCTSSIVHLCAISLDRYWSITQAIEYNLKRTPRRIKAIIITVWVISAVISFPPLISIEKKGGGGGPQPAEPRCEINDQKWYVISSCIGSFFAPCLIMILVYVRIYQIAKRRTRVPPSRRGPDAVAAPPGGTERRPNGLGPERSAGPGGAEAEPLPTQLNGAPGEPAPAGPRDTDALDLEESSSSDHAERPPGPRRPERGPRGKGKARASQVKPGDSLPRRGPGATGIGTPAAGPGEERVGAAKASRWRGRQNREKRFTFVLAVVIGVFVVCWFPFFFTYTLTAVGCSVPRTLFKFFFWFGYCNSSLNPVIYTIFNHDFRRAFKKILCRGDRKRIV
smiles,measurement,setting,value
"Cl.Clc1ccc(CCCOCCCN2CCCCC2)cc1 [pitolisant, 1‐{3‐[3‐(4‐chlorophenyl)propoxy]propyl}piperidine, hydrochloride]",effects on electrophysiological parameters of the action potential,rabbit Purkinje fibres; 1 μM,only minimal effects
same,change in APA,rabbit Purkinje fibres; 10 μM,−8 ± 3%
same,change in APD50 vs. the control,rabbit Purkinje fibres; 10 μM,−27 ± 4%
same,change in Vmax,rabbit Purkinje fibres; 10 μM,−17 ± 5%
same,change in resting RMP vs. the control,rabbit Purkinje fibres; 10 μM,−6 ± 1%
same,change in APD90 vs. the control,"rabbit Purkinje fibres; 10 μM, non-significant",+9 ± 5%
same,IC50,"rabbit Purkinje fibres; Oryctolagus cuniculus, purkinje, estimated from 27% decrease in APD50 at 10 μM",~5000 nM
same,QTc interval (ms) (mean ± SEM),"anaesthetized rabbits; 1 mg·kg^−1 infused over 1 h, 10 min into infusion",154 ± 2 ms
same,QTc interval (ms) (mean ± SEM),"anaesthetized rabbits; 1 mg·kg^−1 infused over 1 h, 20 min into infusion",156 ± 2 ms
same,QTc interval (ms) (mean ± SEM),"anaesthetized rabbits; 1 mg·kg^−1 infused over 1 h, 30 min into infusion",156 ± 2 ms
same,QTc interval (ms) (mean ± SEM),"anaesthetized rabbits; 1 mg·kg^−1 infused over 1 h, 40 min into infusion",156 ± 2 ms
same,QTc interval (ms) (mean ± SEM),"anaesthetized rabbits; 1 mg·kg^−1 infused over 1 h, 50 min into infusion",157 ± 2 ms
same,QTc interval (ms) (mean ± SEM),"anaesthetized rabbits; 1 mg·kg^−1 infused over 1 h, 60 min into infusion",157 ± 3 ms
same,QTc interval (ms) (mean ± SEM),"anaesthetized rabbits; 1 mg·kg^−1 infused over 1 h, baseline",152 ± 3 ms
same,QTc interval (ms) (mean ± SEM),"anaesthetized rabbits; 10 mg·kg^−1 dose range (successively over 20 min at 1, 3.3 and 10 mg·kg^−1), 10 min into infusion",148 ± 3 ms
same,QTc interval (ms) (mean ± SEM),"anaesthetized rabbits; 10 mg·kg^−1 dose range (successively over 20 min at 1, 3.3 and 10 mg·kg^−1), 20 min into infusion",149 ± 2 ms
same,QTc interval (ms) (mean ± SEM),"anaesthetized rabbits; 10 mg·kg^−1 dose range (successively over 20 min at 1, 3.3 and 10 mg·kg^−1), 30 min into infusion",151 ± 2 ms
same,QTc interval (ms) (mean ± SEM),"anaesthetized rabbits; 10 mg·kg^−1 dose range (successively over 20 min at 1, 3.3 and 10 mg·kg^−1), 40 min into infusion",151 ± 1 ms
same,QTc interval (ms) (mean ± SEM),"anaesthetized rabbits; 10 mg·kg^−1 dose range (successively over 20 min at 1, 3.3 and 10 mg·kg^−1), 50 min into infusion",148 ± 4 ms
same,QTc interval (ms) (mean ± SEM),"anaesthetized rabbits; 10 mg·kg^−1 dose range (successively over 20 min at 1, 3.3 and 10 mg·kg^−1), 60 min into infusion",147 ± 2 ms
same,QTc interval (ms) (mean ± SEM),"anaesthetized rabbits; 10 mg·kg^−1 dose range (successively over 20 min at 1, 3.3 and 10 mg·kg^−1), baseline",144 ± 4 ms
same,free drug concentration,"anaesthetized rabbits; cumulative i.v. infusion 1, 3.3 and 10 mg·kg^−1, from total 13.8 μM",~ 0.55 μM
same,change in QTc interval vs. baseline,anaesthetized rabbits; [2],2 ± 1%
same,decrease in heart rate,anaesthetized rabbits; [2],17 ± 4%
same,maximal total drug exposure,anaesthetized rabbits; [2],4140 ± 450 ng/mL
same,total drug concentration,anaesthetized rabbits; [2],13.8 ± 1.5 µM
same,"effect on ventricular premature beats, ventricular tachycardia and TdP induced by clofilium (1 mg·kg^−1)",anaesthetized rabbits; pitolisant 10 mg·kg^−1,abolished
same,change in QTc interval,anaesthetized rabbits; pitolisant single dose 1 mg·kg^−1 i.v. over 60 min,+3 ± 1%
same,ventricular arrhythmias,anaesthetized rabbits; up to 10 mg·kg^−1 by i.v. slow infusion,never observed
same,highest clinically relevant exposure,[1],72 ng/mL
same,Ki,α2A‐adrenoceptor,2900 nM
same,IC50,Kv11.1 (hERG) channel,1300 nM
same,safety margin (hERG IC50 versus free drug concentration),Kv11.1 (hERG) channel; assuming 96% protein-binding and free concentration of […] at 40 mg maximal therapeutic dose,around 100
